According to patent US20070032551A1, “Salt of dimethylaminomethyl-phenyl-cyclohexane and crystalline forms thereof” (GRUENENTHAL GMBH, priority 2005, published 2007):

Experiments:
[1] = Solubility (general statement)
[2] = Hygroscopicity (general statement); assay type: physicochemical
[3] = Bioavailability (general statement)
[4] = Storage at room temperature in high and low atmospheric humidity, crystal form by Raman (Examples E1-E3, B1); assay type: physicochemical; settings: for crystalline form after storage / crystalline form after storage (Raman): room temperature
Description: Unless stated otherwise, the crystal forms are determined by comparison of the Raman spectra.
a) 30 mg of the amorphous fumarate prepared according to Example Bi are stored at room temperature and 75% relative atmospheric humidity for 5 days.
b) 30 mg of the amorphous fumarate prepared according to Example B2 are stored at room temperature and 90% relative atmospheric humidity for 3 days.
c) 30 mg of the amorphous fumarate prepared according to Example B2 are stored at room temperature and 53% relative atmospheric humidity for 2 months.
d) 30 mg of the amorphous fumarate prepared according to Example B2 are stored at room temperature and 22% relative atmospheric humidity for 2 months. Thereafter, the amorphous product is still present.
The fumarate prepared according to Example C3 is stored at room temperature and 75% relative atmospheric humidity, and after 3 days and 1, 2, 3, 4 and 8 weeks samples are analyzed by means of Raman spectroscopy.
The crystalline form B prepared according to Example A1 is stored at room temperature and 75% relative atmospheric humidity, and after 3 days and 1, 2, 3, 4 and 8 weeks samples are analyzed by means of Raman spectroscopy.

[5] = Water uptake by dynamic vapor sorption (Example E6); assay type: physicochemical; settings: 25° C.; for crystalline form present at the end of the DVS measurement: fumarate; for water uptake: DVS
Description: (§1) The water uptake is determined by means of dynamic water vapor uptake (dynamic vapor sorption, DVS) with the DVS-1 apparatus from Surface Measurement Systems Ltd. The sample is placed in a platinum crucible on the tip of a microbalance. The sample is then first equilibrated at 50% relative atmospheric humidity and subsequently subjected to a predefined measurement program. The temperature is 25° C. The change in weight of the sample is determined.

[6] = Water uptake of fumarate and hydrochloride by DVS (Example E8); assay type: physicochemical; settings: 25° C.
Description: as §1, with “the sample after a stepwise increase in the relative atmospheric humidity by in each case 10% to 90% is determined.” for “the sample is determined.”

[7] = Damp storage and drying of fumarate and hydrochloride (Example E9); assay type: physicochemical; settings: for change in the crystalline form (X-ray diffraction diagrams): after damp storage and drying; for DW (dry weight), starting value / WC (Karl Fischer water content), starting value: before the start of the storage
Description: Fumarate and hydrochloride according to Example E8 are first stored at 25° C. and 75% and 95% relative atmospheric humidity for 7 days and thereafter at 50° C. in vacuo in a drying cabinet for 7 days. Before the start of the storage, the X-ray diffraction diagrams (XRD), DSC for determination of transition points (Tp) and dry weight (DW) and the Karl Fischer water content (WC) are determined, and the same values are determined after the damp storage and drying. The X-ray diffraction diagrams show no change in the crystalline forms A and D after damp storage and drying. The starting values for the hydrochloride are Tp=116.27° C., DW=6.35% and WC=8.00%. The starting values for the fumarate are Tp=93.11° C. and 175.14° C., DW=0 and WC=0.2%. The results are given in Tables 7 (75% relative atmospheric humidity) and 8 (95% relative atmospheric humidity).

[8] = Stability under pressure, pressing of tablets (Example E5); assay type: physicochemical; settings: 100 MPa in vacuo, 60 minutes
Description: The fumarate prepared according to Example C3 is introduced into a tablet press and pressed to a tablet under a pressure of 100 MPa in vacuo for 60 minutes.

[9] = Stability at elevated temperature, HPLC and FT Raman (Example E7); assay type: physicochemical; settings: for stability at elevated temperature (in words): open and closed vessels
Description: The crystalline forms are stored in open and closed vessels and possible changes are measured as stability parameters by chromatography (HPLC) after a given time.

[10] = Stability under grinding conditions (Example E4); assay type: physicochemical; settings: for crystalline form after grinding: agate ball mill, 20 Hz, room temperature, 180 minutes; for crystalline form after trituration: pestle in a mortar dish, 5 minutes
Description: The fumarate prepared according to Example C3 is triturated with a pestle in a mortar dish for 5 minutes.
The fumarate prepared according to Example A1 is introduced into an agate ball mill (Retsch MM200 mixing mill with 5 mm agate balls) and ground at 20 Hz and room temperature for 180 minutes.

[11] = 75% r.h. storage, then drying at 50° C. in vacuo for 7 days
[12] = 95% r.h. storage, then drying at 50° C. in vacuo for 7 days
[13] = after damp storage, 25° C., 75% relative atmospheric humidity, 7 days
[14] = after damp storage, 25° C., 95% relative atmospheric humidity, 7 days
[15] = 75% relative atmospheric humidity, after 8 weeks, fumarate
[16] = 40° C./75% r.h., 1 week, fumarate
[17] = 60° C. (closed), 1 week, fumarate
[18] = 60° C. (closed), 4 weeks, fumarate
[19] = 60° C./75% r.h., 4 weeks, fumarate

CN(C)CC1CCCCC1c1cccc(O)c1.O=C(O)/C=C/C(=O)O (centres unmarked) [3-[2-(dimethylamino)methyl-(cyclohex-1-yl)]-phenol fumarate]
solubility ([1]; particularly in polar and protic solvents, including water): good | hygroscopicity [2]: not hygroscopic | bioavailability [3]: good

CN(C)C[C@@H]1CCCC[C@H]1c1cccc(O)c1.O=C(O)/C=C/C(=O)O [amorphous form, (+)-(1R,2R)-3-[2-(dimethylamino)methyl-(cyclohex-1-yl)]-phenol fumarate]
form after storage ([4]; 22% relative atmospheric humidity and 25° C., after 2 months): still amorphous | crystalline form after storage ([4]; 22% relative atmospheric humidity, 2 months): still present | crystalline form after storage ([4]; 53% relative atmospheric humidity, 2 months): converted completely into the crystalline form B | crystalline form after storage ([4]; 75% relative atmospheric humidity, 5 days): converted completely into the crystalline form B | crystalline form after storage ([4]; 90% relative atmospheric humidity, 3 days): converted completely into the crystalline form B | crystalline form present at the end of the DVS measurement [5]: crystalline form A | water uptake ([5]; up to about 77% relative atmospheric humidity): about 6.5 wt. %

CN(C)C[C@@H]1CCCC[C@H]1c1cccc(O)c1.Cl [Hydrochloride, (+)-(1R,2R)-3-[2-(Dimethylamino)methyl-(cyclohex-1-yl)]-phenol hydrochloride]
water uptake in total ([6]; 90% relative atmospheric humidity): about 5 wt. % | water uptake ([6]; relative atmospheric humidity increased to about 75%): about 2 wt. % | water released on desorption, in total ([6]; stepwise lowering of relative atmospheric humidity by 10%): 8.5% | DW (%) [7, 11]: 6.12% | WC (%) [7, 11]: 6.00% | DW (%) [7, 12]: 6.74% | WC (%) [7, 12]: 6.60% | change in the crystalline form (X-ray diffraction diagrams) [7]: no change | DW (%) [7, 13]: 5.92% | WC (%) [7, 13]: 8.50% | DW (%) [7, 14]: 7.84% | WC (%) [7, 14]: 8.50% | DW (dry weight), starting value [7]: 6.35% | WC (Karl Fischer water content), starting value [7]: 8.00%

CN(C)C[C@@H]1CCCC[C@H]1c1cccc(O)c1.O=C(O)/C=C/C(=O)O [crystalline form B, (+)-(1R,2R)-3-[2-(dimethylamino)methyl-(cyclohex-1-yl)]-phenol fumarate]
crystalline form after storage (Raman) [4, 15]: practically unchanged | crystalline form after pressing to a tablet [8]: mixture of the crystalline forms A and B | HPLC [9, 16]: 100.0% | HPLC [9, 17]: 99.0% | HPLC [9, 18]: 100.6% | HPLC [9, 19]: 99.1% | stability at elevated temperature (in words) ([9]; fumarate): very stable in respect of chemical stability | HPLC ([9]; −18° C. (reference), 4 weeks): 100% | crystalline form present at the end of the DVS measurement [5]: unchanged | water uptake ([5]; measurement cycle): about 0.2 wt. % | solubility in polar solvents [1]: very good | release of absorbed moisture on desorption ([6]; at about 10% relative atmospheric humidity): released again completely | water uptake ([6]; stepwise increase of relative atmospheric humidity by 10% to 90%): 0.13% | WC (%) [7, 11]: 0.30% | WC (%) [7, 12]: 0.30% | change in the crystalline form (X-ray diffraction diagrams) [7]: no change | WC (%) [7, 13]: 0.50% | WC (%) [7, 14]: 0.50% | DW (dry weight), starting value [7]: 0% | WC (Karl Fischer water content), starting value [7]: 0.2% | hygroscopicity [2]: not hygroscopic | crystalline form after grinding ([10]; fumarate): mixture of the crystalline forms A and B | crystalline form after grinding ([10]; listed as Example A1, fumarate): mixture of the crystalline form A and B | crystalline form after trituration ([10]; fumarate): unchanged

CN(C)C[C@@H]1CCCC[C@H]1c1cccc(O)c1.O=C(O)/C=C/C(=O)O [crystalline form A, (+)-(1R,2R)-3-[2-(dimethylamino)methyl-(cyclohex-1-yl)]-phenol fumarate]
crystalline form after storage (Raman) [4, 15]: crystalline form B is also present | crystalline form after storage (Raman) ([4]; 75% relative atmospheric humidity, after 3 days): converted into the crystalline form B | crystalline form after pressing to a tablet [8]: mixture of the crystalline forms A and B | HPLC [9, 16]: 99.5% | FT Raman (determination of the crystalline form) ([9]; 60° C. (closed), 1 week): A and B | HPLC [9, 17]: 99.9% | FT Raman (determination of the crystalline form) ([9]; 60° C. (closed), 4 weeks): A and B | HPLC [9, 18]: 99.6% | HPLC [9, 19]: 99.3% | stability at elevated temperature (in words) ([9]; fumarate): very stable in respect of chemical stability and crystal form | FT Raman (determination of the crystalline form) ([9]; −18° C. (reference), 4 weeks): A and B | HPLC ([9]; −18° C. (reference), 4 weeks): 100% | crystalline form present at the end of the DVS measurement [5]: substantially the crystalline form B | water uptake ([5]; measurement cycle): about 0.2 wt. % | solubility in polar solvents [1]: very good | crystalline form after trituration ([10]; listed as Example C3, fumarate): mixture of the crystalline form A and B

CN(C)CC1CCCCC1c1cccc(O)c1.Cl (centres unmarked) [3-[2-(dimethylamino)methyl-(cyclohex-1-yl)]-phenol hydrochloride, reference compound]
hygroscopicity [2]: decidedly hygroscopic
